Measured values published in patent US20260317304A1, “TEAD INHIBITORS AND METHODS OF USE” (Sporos BioDiscovery, Inc., priority 2022, published 2026).
“Also recorded” adds a separate entry of the source.

Key:
NCI-H226 cells [1] = test: Proliferation and cell viability assay, Cell Titer One; assay type: cell-based, human; conditions: Homo sapiens, NCI-H226, 144 h, Cell Titer One assay, 6 days
Procedure: (§1) Cell proliferation of a TEAD dependent NF2-null mesothelioma cell line, NCI-H226 was assayed using two different protocols. Results were confirmed in two different TEAD-non-dependent lung cancer cell lines, H23 and H28, were used as non-responsive controls, as indicated:
b) Cell Titer One (Promega, #G3582). The effect of the TEAD inhibitors disclosed herein on cell proliferation was also determined using the Promega Substrate Cell Titer Aqueous One Solution Reagent. The TEAD inhibitors were evaluated for the effects on cell proliferation responder (H226) and non-responder negative control cancer cell lines (CAMA1, H28), as well as non-transformed normal human cells (HUVEC, NHDF). Dissociated cells were resuspend in media (depending on cell line, either in DMEM, RPMI, or EMEM all with 10% FBS, with gentamicin as an antibiotic). Cells were seeded at 100 μL/well at 750 cells per well in 96-well plates and allowed to settle and attach. After an incubation of 24 hrs (37° C., 5% CO2, humidified incubator), 100 μL of test compound-containing media was added. A dilution series of 2000× concentrated stock of test compounds was prepared in DMSO, for final concentrations from 0.1 to 10,000 nM. After addition of test compound-containing media, cells were incubated for 6 days at 37° C., 5% CO2, humidified incubators). To measure cell density, 20 μL of Promega Substrate Cell Titer 96 Aqueous One Solution Reagent (Promega, #G3582) to each well was added according to the manufacturer's instructions. Plates were incubated at 37° C. for usually 3-8 hrs, to reach in the control cells (without compound) an OD of 1.5 at 490 nm. The OD was measured using Vmax [Molecular Devices] spectrophotometer plate reader. Media only-wells were used as background controls and cell densities normalized to DMSO vehicle control. EC50 were taken as the concentration achieving 50% of maximal growth inhibition.
(§2) For IC50 and EC50 data “A” indicates a value of less than 0.2 μM; the symbol “B” indicates a value in the range of from 0.2 μM up to 1 μM; and the symbol “C” indicates a value of greater than 1 μM. ND: no data.

NCI-H23 cells = test: Proliferation and cell viability assay, CellTiter-Glo 2.0 (CTG); assay type: cell-based; conditions: Homo sapiens, non-responder cell line, 144 hrs
Procedure: as §1
a) CellTiter-Glo® 2.0 (Promega #G9243). The effect of the TEAD inhibitors disclosed herein on cell proliferation was determined in TEAD1-genetically dependent cell line NCI-H226 (responder cell line) and TEAD-independent cell lines (NCI-H23, HEK293T), as non-responder, negative control. […] After 144 hrs of treatment, relative cell viability numbers were determined using the CellTiter-Glo 2.0 assay following the manufacturer's instructions. […] Luminescence was quantified using a CLARIOStar Plus multi-mode plate reader (BMG Labtech) in luminescence detection mode with the recommended settings (ultra-Glo pre-set: emission 545-50 nm with autofocus and enhanced dynamic range on). Relative cell density was expressed as a function of inhibitor concentration, with respect to DMSO-only control wells. Data where plotted using GraphPad Prism and IC50 values for the biological effect were calculated using the EC50 non-linear fit function using a sigmoidal, 4-parameter logistic, least squares fit with no constraints. […]

NCI-H226 cells [2] = test: as above; assay type: cell-based, human; conditions: Homo sapiens, NCI-H226, responder cell line, 144 hrs
Procedure: as §1
a) CellTiter-Glo® 2.0 (Promega #G9243). The effect of the TEAD inhibitors disclosed herein on cell proliferation was determined in TEAD1-genetically dependent cell line NCI-H226 (responder cell line) and TEAD-independent cell lines (NCI-H23, HEK293T), as non-responder, negative control. Cells were seeded in 96-well plates (Thermo Scientific #167008) in growth media (RPMI-1640, Gibco #61870-010) for NCI-H226 and NCI-H23 or DMEM (Gibco #31966-021, HEK293T) with […] Heat Inactivated Fetal Bovine Serum (Gibco 10500-064) at 800 (NCI-H226 and HEK-293T) or 2000 (NCI-H23) cells per well at 37° C., […], humidified incubator; 24 hours later, fresh growth media containing test compound or DMSO vehicle was added and incubated with the cells for 144 hrs. TEAD inhibitor stocks were made at a 1000× fold excess in DMSO, and a dose response test compound dose range of 10,000 to 0.1 nM was used. Each treatment was carried out in triplicate. After 144 hrs of treatment, relative cell viability numbers were determined using the CellTiter-Glo 2.0 assay following the manufacturer's instructions. Test plates and CellTiter-Glo 2.0 reagent were allowed to equilibrate to room temperature. CellTiter-Glo 2.0 reagent was added at 1:1 reagent to media ratio to the 96-well cell plates, plates were placed on a plate shaker for 2 minutes and then incubated at room temperature for a further 10 minutes to allow complete cell lysis to occur. The mix was then transferred to white, 96-well luminometer assay plates (Greiner Bio One #655075). Luminescence was quantified using a CLARIOStar Plus multi-mode plate reader (BMG Labtech) in luminescence detection mode with the recommended settings (ultra-Glo pre-set: emission 545-50 nm with autofocus and enhanced dynamic range on). Relative cell density was expressed as a function of inhibitor concentration, with respect to DMSO-only control wells. Data where plotted using GraphPad Prism and IC50 values for the biological effect were calculated using the EC50 non-linear fit function using a sigmoidal, 4-parameter logistic, least squares fit with no constraints.
as §2

TEAD2 [3] = conditions: thermal shift; cited from earlier work
TEAD3 [4] = conditions: thermal shift; cited from earlier work
TEAD isoforms 1-4 [5] = conditions: thermal shift data of Tang and Post; cited from earlier work
TEAD4 [6] = conditions: thermal shift; cited from earlier work
TEAD1 [7] = conditions: thermal shift; cited from earlier work
TEAD isoforms 1-4 [8] = test: TEAD thermal shift assay (TSA), outcome in words; assay type: binding, human
Excerpt: (§3) Thermal shift assay (TSA) is a biophysical method to evaluate stability of proteins with change in temperature. The assay measures thermal denaturation temperature in varying conditions such as different drug concentration. For this example, fluorogenic dye was used that bind to unfolded proteins. SYPRO Orange binds non-specifically to hydrophobic surfaces, and water strongly quenches its fluorescence. When the protein unfolds, the exposed hydrophobic surfaces bind the dye, resulting in an increase in fluorescence by excluding water. Detergent micelles also bind the dye and increase background noise dramatically. Binding of small molecules to proteins leads to a stabilization against to thermal denaturation with the degree of thermal stabilization proportional to the strength of binding.
(§4) The study described in this example investigated the change in melting temperature (ΔTm) of TEAD isoforms 1-4 when treated with TEAD inhibitors.
(§5) Tris-HCL was dissolved in 5 mL of Cell culture grade water and allowed to dissolve completely. The pH was adjusted to 8 using NaOH. Additional assay buffer components were added in the order listed above. The buffer was mixed slowly.
(§6) Assay buffer was prepared according to the procedures outlined above and dispensed into test wells. Spyro orange was added to a concentration of 5× in the assay buffer, followed by test compound stock solution which was added to a concentration of 10 μM or 30 μM in the assay buffer.
(§7) The melt cycle was performed in Bio-RAD PCR instrument from 20-95° C. with ramp rate of 1° C./min.

[9] = as reported by Tang et al.; cited from earlier work
SDM103T2 cells = test: SDM103T2 proliferation and cell viability assay (CTG); assay type: cell-based; conditions: 144 hours
Procedure: SDM103T2 cells were trypsinised, counted and plated at 800 cells/well in 200 μl of growth media in 96 well flat bottom tissue culture treated plates. The plated cells were incubated overnight at 37° C., 5% CO2 before being treated with compounds in triplicate for each assay point. 50 μl of the serially diluted compound was added to each well giving a final DMSO concentration of 0.5% per well and a total volume of 250 μl per well. The treated cells were incubated for 144 hours (6 days) at 37° C., 5% CO2. Following compound treatment the remaining viable cells were detected using the Promega CellTiter-Glo 2.0 assay as follows: 150 μl of media was removed from each of the wells to be assayed and 100 μl of room temperature CellTiter-Glo 2.0 reagent was added. The plate was placed on an orbital shaker at 500 rpm at room temperature for 2 minutes, and then incubated without shaking for a further 10 minutes at room temperature. 150 μl of cell lysate was removed from each well and dispensed into a single well of a white opaque 96 well plate. Luminescence at 545 nm was read using a BMG CLARIOstar plate reader. The luminescent signal was directly proportional to number of viable cells, the percent of viable cells relative to the DMSO control was then calculated for each assay point. Percent viability relative to DMSO control was plotted against compound concentration and a curve fitted with non-linear regression in GraphPad Prism software. EC50 and absolute IC50 values were calculated using GraphPad Prism software as follows: For EC50 values a non-constrained four-parameter logistic curve fit was used (Sigmoidal, 4PL, X is concentration). For Absolute IC50 values the baseline was constrained to Y=0 and top at 100 (Absolute IC50, X is concentration). Area Under the Curve (AUC): Prism computes area-under-the-curve by the trapezoidal method. The analysis sees a fitted curve as simply a series of connected XY points. Prism simply computes the area under the “curve” defined by connecting the points by straight lines. The units of the AUC are the units of the Y axis times units of the X axis.
For EC50 data, the symbol “A” indicates a value of less than 0.2 μM; the symbol “B” indicates a value in the range of from 0.2 μM up to 1 μM; and the symbol “C” indicates a value of greater than 1 μM.

MSTO-211H xenograft = test: Mouse xenograft MSTO-211H tumors compared to prior art TEAD inhibitor; assay type: in vivo, BALB/c nude mice; conditions: 7 days of treatment, PO BID, 3 mg/kg Compound 1-1
Procedure: This study evaluated the in vivo anti-tumor efficacy of test compounds in BALB/c nude mice for treatment of MSTO-211H xenograft of lung cancer.
The MSTO-211H tumor cells were maintained in vitro in RPMI 1640 medium supplemented with 10% Fetal bovine serum and 1% Antibiotic-Antimycotic at 37° C. in an atmosphere of 5% CO2 in air. The tumor cells were routinely subcultured twice weekly by trypsin-EDTA. The cells growing in an exponential growth phase were harvested and counted for tumor inoculation.
Each mouse was inoculated subcutaneously at the right flank with MSTO-211H tumor cells (10×10^6+50% matrigel/0.2 mL) for tumor development. Test subjects received vehicle (e.g., 0.5% CMC-Na+1% Tween80) beginning on day 7 after cell inoculation. […]
The major endpoint was to determine if the tumor growth could be delayed. Tumor size was measured twice a week in two dimensions using a caliper, and the volume was expressed in mm^3 using the formula: V=0.5 a×b^2 where a and b are the long and short diameters of the tumor, respectively. […]
Summary statistics, including mean and the standard error of the mean (SEM), were calculated for the tumor volume of each group at each time point. […]
One-tailed T test was performed to compare tumor volumes between two groups. All data were analyzed using GraphPad Prism 6.0. p<0.05 was considered to be statistically significant.

TEAD3 [10] = biological target: TEAD3 (Homo sapiens, UniProt Q99594); test: TEAD thermal shift assay (TSA); assay type: binding
Chain of TEAD3 (Homo sapiens, UniProt Q99594) (Q99594 whole entry): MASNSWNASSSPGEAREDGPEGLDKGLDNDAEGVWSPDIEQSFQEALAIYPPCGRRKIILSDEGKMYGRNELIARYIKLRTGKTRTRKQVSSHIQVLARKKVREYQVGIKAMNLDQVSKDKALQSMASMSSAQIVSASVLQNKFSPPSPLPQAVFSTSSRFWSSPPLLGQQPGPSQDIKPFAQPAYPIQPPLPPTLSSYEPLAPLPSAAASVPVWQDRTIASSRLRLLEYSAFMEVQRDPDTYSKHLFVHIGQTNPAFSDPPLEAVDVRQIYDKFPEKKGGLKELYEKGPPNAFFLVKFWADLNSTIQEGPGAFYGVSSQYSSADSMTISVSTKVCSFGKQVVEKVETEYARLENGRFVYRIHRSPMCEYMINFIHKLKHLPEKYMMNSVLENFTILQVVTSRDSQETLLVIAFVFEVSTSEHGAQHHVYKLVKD
Excerpt: as §3, §4, §5, §6, §7

TEAD4 [11] = biological target: TEAD4 (Homo sapiens, UniProt Q15561); test: TEAD thermal shift assay (TSA); assay type: binding
Chain of TEAD4 (Homo sapiens, UniProt Q15561) (Q15561 whole entry): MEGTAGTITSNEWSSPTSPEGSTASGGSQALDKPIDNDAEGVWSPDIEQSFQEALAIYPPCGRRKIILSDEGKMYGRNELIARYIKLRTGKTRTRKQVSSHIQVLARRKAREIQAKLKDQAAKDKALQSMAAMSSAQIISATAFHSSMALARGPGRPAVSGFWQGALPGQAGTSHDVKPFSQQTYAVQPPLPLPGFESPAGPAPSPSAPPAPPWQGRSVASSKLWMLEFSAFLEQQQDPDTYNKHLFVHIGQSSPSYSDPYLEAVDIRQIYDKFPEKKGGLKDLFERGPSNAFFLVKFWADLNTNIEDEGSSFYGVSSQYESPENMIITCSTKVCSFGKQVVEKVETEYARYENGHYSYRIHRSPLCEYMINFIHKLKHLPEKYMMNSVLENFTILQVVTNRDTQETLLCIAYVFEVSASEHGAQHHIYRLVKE
Excerpt: as §3, §4, §5, §6, §7

TEAD2 [12] = biological target: TEAD2 (Homo sapiens, UniProt Q15562); test: TEAD thermal shift assay (TSA); assay type: binding
Chain of TEAD2 (Homo sapiens, UniProt Q15562) (Q15562 whole entry): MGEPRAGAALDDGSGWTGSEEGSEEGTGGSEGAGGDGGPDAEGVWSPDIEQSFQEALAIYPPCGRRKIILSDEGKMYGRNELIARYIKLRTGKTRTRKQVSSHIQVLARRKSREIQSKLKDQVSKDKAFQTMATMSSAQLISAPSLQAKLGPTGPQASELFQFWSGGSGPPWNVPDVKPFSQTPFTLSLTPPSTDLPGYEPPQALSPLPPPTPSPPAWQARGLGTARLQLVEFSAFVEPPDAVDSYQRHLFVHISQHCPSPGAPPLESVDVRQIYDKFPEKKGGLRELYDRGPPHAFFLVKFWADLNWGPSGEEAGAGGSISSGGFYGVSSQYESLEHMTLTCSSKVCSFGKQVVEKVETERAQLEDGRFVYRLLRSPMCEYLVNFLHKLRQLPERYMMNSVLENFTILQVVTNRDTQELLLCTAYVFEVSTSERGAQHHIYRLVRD
Excerpt: as §3, §4, §5, §6, §7

TEAD = conditions: control compounds; cited from earlier work
TEAD1 [13] = biological target: TEAD1 (Homo sapiens, UniProt P28347); test: TEAD thermal shift assay (TSA); assay type: binding
Chain of TEAD1 (Homo sapiens, UniProt P28347) (P28347 whole entry): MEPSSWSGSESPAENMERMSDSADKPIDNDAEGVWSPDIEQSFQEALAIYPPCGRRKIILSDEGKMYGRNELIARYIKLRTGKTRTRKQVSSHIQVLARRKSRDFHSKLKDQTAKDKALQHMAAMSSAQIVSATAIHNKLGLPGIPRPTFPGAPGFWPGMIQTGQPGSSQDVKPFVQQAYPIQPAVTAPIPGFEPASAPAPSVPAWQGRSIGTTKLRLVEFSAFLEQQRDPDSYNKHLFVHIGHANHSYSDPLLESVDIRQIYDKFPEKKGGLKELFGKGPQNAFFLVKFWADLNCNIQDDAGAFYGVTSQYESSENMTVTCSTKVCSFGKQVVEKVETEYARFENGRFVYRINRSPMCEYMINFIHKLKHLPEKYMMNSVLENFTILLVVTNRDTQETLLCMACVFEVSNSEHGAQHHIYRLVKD
Excerpt: as §3, §4, §5, §6, §7

[14] = Ratio of Protein to Compound 1:3
[15] = Ratio of Protein to Compound 1:1

Cc1nnc(-c2cc(C3(C)CCNC3=O)ccc2Nc2ccc(C(F)(F)F)cc2)o1 (racemic) [Compound 1, 3-methyl-3-(3-(5-methyl-1,3,4-oxadiazol-2-yl)-4-((4-(trifluoromethyl)phenyl)amino)phenyl) pyrrolidin-2-one]
IC50 (NCI-H226 cells [1]): < 200 nM
IC50 (NCI-H23 cells): > 1000 nM
EC50 (NCI-H226 cells [2]): < 200 nM

Cn1cnc(-c2cc(C3(C)CCNC3=O)ccc2Nc2ccc(C(F)(F)F)cc2)c1 (racemic) [Compound 2, 3-methyl-3-(3-(1-methyl-1H-imidazol-4-yl)-4-((4-(trifluoromethyl)phenyl)amino)phenyl) pyrrolidin-2-one]
IC50 (NCI-H226 cells [1]): < 200 nM
IC50 (NCI-H23 cells): > 1000 nM
EC50 (NCI-H226 cells [2]): < 200 nM

C[C@H](CO)NC(=O)c1ccc2c(Oc3ccc(C(F)(F)F)cc3)cccc2c1 [VT3989]
TEAD2 ΔTm (TEAD2 [3]): 8.8 °C
TEAD3 ΔTm (TEAD3 [4]): 8.5 °C
TEAD isoform interaction / binding (in words) (TEAD isoforms 1-4 [5]): primarily interacts with TEAD1-3; also recorded: lower levels of binding to TEAD4
selectivity over TEAD2 and 3 (in words) (TEAD isoforms 1-4 [5]): minimal selectivity over TEAD2 and 3
TEAD4 ΔTm (TEAD4 [6]): 4.6 °C
TEAD1 ΔTm (TEAD1 [7]): 11.6 °C

CNS(=O)(=O)c1ccc(Nc2ccc(C(F)(F)F)cc2)c(-c2cn(C)cn2)c1 [Compound 1-1]
thermal shift / TEAD binding (in words) (TEAD isoforms 1-4 [8]): pronounced thermal shift only for TEAD1
half-life (in words) [9]: long half-life
EC50 (SDM103T2 cells): < 200 nM
change in tumor volume (in words) (MSTO-211H xenograft): Tumor growth was observed
TEAD3 ΔTm (TEAD3 [10]; [14]): 0 °C
TEAD4 ΔTm (TEAD4 [11]; [14]): 1 °C
TEAD2 ΔTm (TEAD2 [12]; [14]): 1 °C
known TEAD inhibition (in words) (TEAD): known strong TEAD1 and weak TEAD2 inhibitor

C[C@H](NC(=O)c1ccc2c(-c3ccc(C(F)(F)F)cc3)cccc2c1)c1cccc(N)n1 [Compound 1-4]
thermal shift / TEAD binding (in words) (TEAD isoforms 1-4 [8]): thermal shifts for all four TEAD isoforms
TEAD3 ΔTm (TEAD3 [10]; [15]): 3 °C
TEAD1 ΔTm (TEAD1 [13]; [15]): 7.5 °C
TEAD1 ΔTm (TEAD1 [13]; [14]): 11 °C
TEAD4 ΔTm (TEAD4 [11]; [15]): 1.5 °C
TEAD4 ΔTm (TEAD4 [11]; [14]): 11 °C
TEAD2 ΔTm (TEAD2 [12]; [15]): 2.5 °C
TEAD2 ΔTm (TEAD2 [12]; [14]): 11 °C
known TEAD inhibition (in words) (TEAD): pan-TEAD inhibitor
